Source: PubChem BioAssay (NCI)
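Cultured in 96-well plates, cells were exposed to test compound for 48 hours across five concentrations. GI50 marks 50% less growth. TGI: total growth inhibition.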

Legend:
Assay in all cases: DTP human tumour cell line panel, 48 h
[1] = tested on: IGROV1 ovarian
[2] = tested on: A498 renal
[3] = tested on: SK-OV-3 ovarian
[4] = tested on: SF-295 CNS
[5] = tested on: SK-MEL-28 melanoma
[6] = tested on: KM12 colon
[7] = tested on: UACC-257 melanoma
[8] = tested on: M14 melanoma
[9] = tested on: A549 NSCLC
[10] = tested on: MDA-MB-435

SMILES | GI50 [1] [µM] | TGI [1] [µM] | GI50 [2] [µM] | TGI [2] [µM] | GI50 [3] [µM] | TGI [3] [µM] | GI50 [4] [µM] | TGI [4] [µM] | GI50 [5] [µM] | TGI [5] [µM] | GI50 [6] [µM] | TGI [6] [µM] | GI50 [7] [µM] | TGI [7] [µM] | GI50 [8] [µM] | TGI [8] [µM] | GI50 [9] [µM] | TGI [9] [µM] | GI50 [10] [µM] | TGI [10] [µM]
CC1(C)OC(=O)C=C([O-])O1.CC1(C)OC(=O)C=C([O-])O1.O=S(=O)([O-])c1ccc([O-])c2ncccc12.O=S(=O)([O-])c1ccc([O-])c2ncccc12.[Ti+4] | > 100 | > 100 | > 100 | > 100 | > 100 | > 100 | > 100 | > 100 | > 100 | > 100 | > 100 | > 100 | > 100 | > 100 | 69.2 | > 100 | 48.6 | > 100 |  | 
O=C(c1ccc2ncc(-c3nc(NC4CC4)ncc3F)n2c1)N1CCOCC1 | 2.42 | 12.2 | 1.63 | 3.82 |  |  | 2.64 | > 100 | 2.47 | 7.6 | 2.28 | 11.8 | 2.71 | 8.43 | 1.9 | 4.07 | 2.48 | > 100 | 3.11 | 14.4
NC1CCN(c2nc(Nc3cccc(C(F)(F)F)c3)c3c(=O)[nH]ccc3n2)CC1 |  |  | 1.64 | 3.14 | 1.08 | 2.39 | 1.96 | 3.59 | 1.82 | 3.32 |  |  | 2.06 | 3.98 | 1.01 | 2.23 | 1.34 | 2.99 | 1.09 | 2.42
Cc1c(C(=O)NCCO)[n+](=O)c2cc(Cl)ccc2n1[O-] |  | > 100 |  | > 100 |  | > 100 |  | > 100 |  | > 100 |  | > 100 |  | > 100 |  | > 100 |  | > 100 |  | 
CN(CN1C(=O)C2Cc3ccccc3CN2C1=O)c1ccccn1 (stereo not drawn) |  | > 100 |  | > 100 |  |  |  | > 100 |  | > 100 |  | > 100 |  |  |  | > 100 |  | > 100 |  | 
Nc1ccc2c(c1)NCCN2 |  | > 100 |  |  |  |  |  | > 100 |  | > 100 |  | > 100 |  | > 100 |  | > 100 |  | > 100 |  | > 100
Cn1c(=O)nc2n(-c3cccc(F)c3)c3ccccc3nc-2c1=O |  | 62.5 |  | > 100 |  | > 100 |  | > 100 |  |  |  | > 100 |  | 28.1 |  | 67.1 |  | 53.5 |  | 
CCNC(=O)C#CC(=O)NCC |  | > 100 | > 100 | > 100 |  | > 100 | > 10 | > 100 | > 100 | > 100 | > 10 | > 100 | > 10 | > 100 | > 10 | > 100 | > 10 | > 100 |  | 
CC(=O)OCCOCNC(=S)N/N=C(\C)c1cnc2ccccc2n1 |  | > 100 |  | > 100 |  | > 100 |  | > 100 |  | > 100 |  | > 100 |  | > 100 |  | > 100 |  | > 100 |  | 
C=C=C(CC)C(C(=O)OC)N(CC)CC (stereo not drawn) |  | > 100 |  | > 100 |  | > 100 |  | > 100 |  | > 100 |  | > 100 |  | > 100 |  | > 100 |  | > 100 |  | 
O=C1C[C@@H]2C(COC(=O)c3ccccc3)N(OCc3ccccc3)C[C@@H]2O1 (stereo partly drawn) |  | > 100 |  | > 100 |  | > 100 |  |  |  | > 100 |  | > 100 |  | > 100 |  | > 100 |  | > 100 |  | 
COc1ccc2c(c1OC)C1=C(C2=O)c2cc3c(cc2CCN1)OCO3 |  | > 100 |  | > 100 |  |  |  | > 100 |  | > 100 |  | 78 |  | > 100 |  | > 100 |  | > 100 |  | 
CN1NC2(CCCCC2)ON=C1c1ccccc1 |  | > 100 |  | > 100 |  | > 100 |  | > 100 |  | > 100 |  | > 100 |  | > 100 |  | > 100 |  | > 100 |  | 
C(=N\OCc1ccccc1)/c1ncccc1C1OCCO1 |  | > 100 |  |  |  | > 100 |  | > 100 |  | > 100 |  | > 100 |  | > 100 |  | > 100 |  | > 100 |  | 
Cc1nc2sc(C(=O)Nc3cccc4ccccc34)c(N)c2cc1C(=O)c1ccccc1 | 1.8 | > 50 | 0.15 | 1.17 | 1.28 | > 50 |  |  | 4.95 | > 50 | 1.86 | > 50 | > 50 | > 50 | 1.23 | > 50 | 0.403 | > 50 |  | 
Cc1c(C(=O)c2ccccc2C(=O)O)c2ccccc2n1C |  | > 100 |  | > 100 |  | > 100 |  | > 100 |  | > 100 |  | > 100 |  | > 100 |  | > 100 |  | > 100 |  | 
CC(=O)O[C@H]1CC[C@@]2(C)C(=CC[C@H]3C4=CC=C(C(C)=O)[C@@]4(C)CCC32)C1 (stereo partly drawn) |  | > 100 |  | > 100 |  | > 100 |  | > 100 |  | > 100 |  | > 100 |  | 62.1 |  | > 100 |  | > 100 |  | 
CN(C)C(N)=NC#N |  | > 100 |  | > 100 |  | > 100 |  | > 100 |  | > 100 |  | > 100 |  | > 100 |  | > 100 |  | > 100 |  | 
CCC(=O)C(C)C1=Nc2nnc(CCCCCCCc3nnc4n3C(=O)C(C(C)C(=O)CC)=N4)n2C1=O (stereo not drawn) |  | > 100 |  | > 100 |  | > 100 |  | > 100 |  | > 100 |  | > 100 |  | > 100 |  | > 100 |  | > 100 |  | 
Cc1ccc(S(=O)(=O)NC(=O)NC23CC4CC(CC(F)(C4)C2)C3)cc1 |  | > 100 |  | > 100 |  | > 100 |  |  |  | > 100 |  | > 100 |  | > 100 |  | > 100 |  | > 100 |  | 
C1CCN(c2nsc(N3CCCCC3)n2)CC1 |  | > 100 |  | > 100 |  | > 100 |  | > 100 |  | > 100 |  | > 100 |  | > 100 |  | > 100 |  | > 100 |  | 
COc1cccc(NC(=O)CC(=O)N2N=C(N(CCC#N)c3ccccc3C)CC2c2ccccc2)c1 (stereo not drawn) |  | > 100 |  |  |  | > 100 |  | > 100 |  | > 100 |  | > 100 |  | > 100 |  | > 100 |  | > 100 |  | 
